Data set [1] can be described thus: in vitro. To be noted: clpb promoter-lacz e. coli.
Data set [2] is described as follows: groE promoter-lacZ induction (preferred kit, β-galactosidase). To be noted: groe promoter-lacz e. coli.
The test system of data set [3] is mutant strains of Salmonella typhimurium. To be noted: cited from earlier work.
For data set [4], the system named is sodA gene. To be noted: cited from earlier work.
In data set [5] the test system is soi28 promoter. In words: soi28 promoter-controlled β-galactosidase expression (Example 7).
The nature of data set [6]: soi28 promoter-lacZ induction (preferred kit, β-galactosidase). The settings on record: promoter-lacz bacterial strain.
The test system of data set [7] is ada gene. To be noted: cited from earlier work.
For data set [8], the system named is ada promoter. In words: ada promoter-lacZ induction (preferred kit, β-galactosidase). The settings on record: MMS 470 μM to 1880 μM; FIG. 9.
Data set [9] concerns nfo promoter. In words: nfo promoter-controlled β-galactosidase expression (Example 7).
In data set [10] the test system is dinD promoter. In words: dinD promoter-controlled β-galactosidase expression (Example 7). To be noted: for dinD controlled β-galactosidase expression: 5 μg/ml, 0 min 321.
Data set [11] has as its system adaA promoter. In words: adaA (ada-alkA) promoter-controlled β-galactosidase expression (Example 7).
The test system of data set [12] is micF gene. The settings on record: cited from earlier work.
A short description of data set [13]: micF promoter-lacZ induction (preferred kit, β-galactosidase). To be noted: promoter-lacz bacterial strain.
Data set [14] has as its system dinD promoter.
Data set [15] concerns sfiA promoter.
Data set [16] relates to dinD promoter. The settings on record: cited from earlier work.
The subject of data set [17] is soi28 promoter. In words: soi28 promoter-lacZ induction (preferred kit, β-galactosidase).
For data set [18], the system named is nfo gene. The settings on record: cited from earlier work.
The nature of data set [19]: in vitro. To be noted: dind promoter-lacz e. coli.
Data set [20] can be described thus: nfo promoter-lacZ induction (preferred kit, β-galactosidase). The settings on record: nfo promoter-lacz e. coli.
Data set [21] concerns topA promoter. In words: topA promoter-lacZ induction (preferred kit, β-galactosidase). The settings on record: Escherichia coli, read-out: Fold Induction, topA.
The subject of data set [22] is rdc promoter. To be noted: cited from earlier work.
The test system of data set [23] is sodA promoter.
The subject of data set [24] is fepB promoter. In words: fepB promoter-controlled β-galactosidase expression (Example 7). The settings on record: 2,2'-dipyridyl 0-160 μM; FIG. 6.
In data set [25] the test system is katG gene. To be noted: cited from earlier work.
Data set [26] concerns ahp gene. The settings on record: cited from earlier work.
Data set [27] can be described thus: katG promoter-lacZ induction (preferred kit, β-galactosidase). To be noted: promoter-lacz bacterial strain.
The subject of data set [28] is DNA strand breaks. To be noted: cited from earlier work.
The subject of data set [29] is zwf promoter. In words: zwf promoter-lacZ induction (preferred kit, β-galactosidase). To be noted: Escherichia coli, read-out: Fold Induction, zwf.
In data set [30] the test system is micF promoter. In words: micF promoter-lacZ induction (preferred kit, β-galactosidase).
The subject of data set [31] is merR promoter. In words: merR promoter-lacZ induction (preferred kit, β-galactosidase).
The subject of data set [32] is ndh promoter. In words: ndh promoter-controlled β-galactosidase expression (Example 7).
The subject of data set [33] is clpB promoter. The settings on record: 0.32 mg/ml.
Data set [34] deals with gsh gene. To be noted: cited from earlier work.
Data set [35] has as its system zwf gene. To be noted: cited from earlier work.
Data set [36] deals with proU promoter. In words: proU promoter-controlled β-galactosidase expression (Example 7). To be noted: NaCl 0-0.8M; FIG. 5.
For data set [37], the system named is soi17 promoter. In words: soi17 promoter-controlled β-galactosidase expression (Example 7). The settings on record: NaCl 0-0.8M; FIG. 5.
Setting [38] is: 2,2'-dipyridyl 0-160 μM, FIG. 6.

Where a name gives a salt, the structure may show the parent alone. Read-outs that look alike come from different tables or passages of the source.

Consider `Oc1ccccc1` [Phenol], for which the fold induction in [1] was determined as 1.5; in [2], 2.2.

With `CC1=CC(=O)c2c(O)cccc2C1=O` [plumbagin], the “response in Ames Assay” value in data set [3] is given as “neither compound produces a positive response”. In addition, the sodA gene induction result in data set [4] is listed as “strongly induced”. In addition, the “induction of soi28 promoter” value in data set [5] (plumbagin 0-160 μM, FIG. 4) is on record as “cause induction of the soi28 promoter”.

For the compound `C[n+]1c2ccccc2nc2ccccc21` [phenazine methyl sulfate], the sodA gene induction entry in data set [4] is “strongly induced”.

`ClC(Cl)Cl` [Chloroform]: the figures for the fold induction in [1] and in [6] were 4.5 and 2, respectively.

As to `O=C(O)CN(CCN(CC(=O)O)CC(=O)O)CC(=O)O` [EDTA], in data set [4], the sodA gene induction entry was “also induced”.

As for `COC1=C(N)C(=O)c2nc(-c3nc(C(=O)O)c(C)c(-c4ccc(OC)c(OC)c4O)c3N)ccc2C1=O` [streptonigrin], in [4], the sodA gene induction result is on record as “strongly induced”.

As for `COS(C)(=O)=O` [Methyl Methane-sulfonate, methyl methanesulfonate], in [7], the “ada gene expression induction” value is given as “induce ada gene expression”. Besides, the “induction of ada promoter” value in [8] is “specifically induces the ada promoter”. In data set [9] (MMS 0-40 nM, FIG. 3), the “induction of nfo promoter (oxygen-dependent damage)” value is “not oxygen-dependent (nfo promoter)”. Also, the “induction of dinD promoter (strand breaks)” value in [10] (MMS 0-40 nM, FIG. 3) is reported as “not via stand breaks (dinD promoter)”. Besides, in data set [11] (MMS 0-40 nM, FIG. 3), the “induction of adaA promoter (DNA alkylation)” value was “induction of the adaA promoter”.

`CCO` [Ethanol]: the micF gene induction result in data set [12] is given as “also induced”. Also, the figures for the fold induction in data set [13] and in data set [6] were 2.5 and 1.7, respectively.

With `CC(C)(C)c1cc(O)ccc1O` [Tert-butyl hydroquinone], the values for the fold induction at 2000 µM in data set [1] and in data set [13] were 2.8 and 2.6, respectively.

Consider `O=[N+]([O-])c1cc[n+]([O-])c2ccccc12` [4-NQO, 4-nitroquinoline oxide], for which the “induction of dinD promoter” value in data set [14] (4-NQO, FIG. 11) was “causes induction of the dinD promoter”; in [10] (4-NQO 0-100 picomolar, FIG. 2), “induction of the sfiA and dinD promoters”. Further, the “induction of sfiA promoter” value in [15] (4-NQO 0-100 picomolar, FIG. 2) is “induction of the sfiA and dinD promoters”. Also, the dinD induction result in [16] was “Typical inducers of dinD”. Further, the “induction of soi28 promoter” value in data set [17] (4-NQO, FIG. 11) is given as “to a lesser extent”. Further, in [9] (4-NQO 0-100 picomolar, FIG. 2), the “induction of nfo promoter” value was “minor, but dose-dependent induction”. Further, in [11] (4-NQO 0-100 picomolar, FIG. 2), the “induction of adaA promoter (DNA alkylation)” value is given as “not DNA alkylation (adaA promoter)”.

On to `CC1=CC(=O)c2ccccc2C1=O` [menadione], for which, in data set [4], the sodA gene induction entry was “strongly induced”. In addition, in [18], the nfo induction result is recorded as “specifically induced”.

Take `C[S+](C)[O-]` [DMSO]: the fold induction in data set [1] is 2; in data set [19], 2.2; in data set [20], 1.6. In data set [21], the fold induction at 25 % amounted to 1.7.

With `OCC(O)CS` (stereo not drawn) [thioglycerol], in data set [22], the rdc promoter induction result is on record as “induced”.

Regarding `c1ccc(-c2ccccn2)nc1` [2,2'-dipyridyl], in [15] (setting [38]), the “effect on DNA replication (sfiA promoter)” value is listed as “no effect on DNA replication (sfiA promoter)”. Besides, the “induction of sodA promoter (superoxide formation)” value in [23] (setting [38]) is recorded as “sodA induction”. For the same compound, the sodA gene induction entry in data set [4] is “also induced”. Also, the “induction of fepB promoter (chelating metals)” value in data set [24] is on record as “fepB induction”.

`OO` [Hydrogen peroxide]: the katG gene induction result in data set [25] is “can be induced”. Moreover, in data set [26], the ahp gene induction result was “induced”. Besides, the dinD induction entry in data set [16] was “does not respond to oxidative DNA damage, except when cells are exposed to extremely high concentrations of H2 O2”. The fold induction was determined as 3 in data set [19] and 2 in [27].

Turning to `O=C1O[C@H]([C@@H](O)CO)C(O)=C1O` [Ascorbic acid], in [28], the “number of hydrogen peroxide induced DNA strand breaks” value is “reduce the number of hydrogen peroxide induced DNA strand breaks”.

Consider `C[n+]1ccc(-c2cc[n+](C)cc2)cc1` [Paraquat], for which, in [14], the “effect on dinD promoter” value is “apparent inhibition”. Besides, in data set [3], the “response in Ames Assay” value is reported as “neither compound produces a positive response”. Further, the sodA gene induction entry in [4] was “strongly induced”. Besides, the micF gene induction entry in data set [12] is reported as “induced”. Moreover, in data set [18], the nfo induction result is “specifically induced”. In addition, the fold induction at 8000 µg/mL in [29] worked out at 3. Besides, the “induction of micF promoter” value in data set [30] is “specific induction of the soi28 and micF promoters”. For the same compound, the “effect on merR promoter” value in data set [31] is “apparent inhibition”. For the same compound, the “induction of soi28 promoter” value was “specific induction of the soi28 and micF promoters” in data set [17]; “cause induction of the soi28 promoter” in [5]. Besides, in [32], the “induction of ndh promoter” value is recorded as “negligible effect”. For the same compound, in data set [32] (50 μM, 0 μM control 464), the “ndh induction, galactosidase activity” value was 980 units. Further, the “induction of nfo promoter” value in data set [9] is “induced the nfo promoter”. The “nfo induction, galactosidase activity” value in data set [9] (50 μM, 0 μM control 2952) came to 8100 units. In data set [5] (50 μM, 0 μM control 670), the “soi28 induction, galactosidase activity” value is 2370 units.

Turning to `CN(C)c1ccc2nc3ccc(=[N+](C)C)cc-3sc2c1` [methylene blue], in data set [4], the sodA gene induction result is “strongly induced”.

Take `CCCO` [1-propanol]: the fold induction in [1] stood at 5.6; in [13], 4; in data set [2], 1.5.

For `CO[C@@]12[C@H](COC(N)=O)C3=C(C(=O)C(C)=C(N)C3=O)N1C[C@@H]1N[C@@H]12` [Mitomycin C], the dinD induction result in data set [16] is recorded as “Typical inducers of dinD”. For the same compound, the “dinD controlled β-galactosidase expression” value in data set [10] (15 min exposure) was determined as 350; in data set [10] (25 min exposure) it was 1036; in [10] (35 min exposure) it was 811; in data set [10] (55 min exposure) it was 1204. Moreover, the fold induction at 5 µg/mL in data set [10] (Escherichia coli, 55 min, read-out: dinD promoter induction) is around 4.

On to `c1cnc2c(c1)ccc1cccnc12` [1, 10-phenanthroline], for which, in data set [4], the sodA gene induction entry is listed as “also induced”.

With `CCOS(C)(=O)=O` [EMS, ethlymethanosulfate], in data set [7], the “ada gene expression induction” value is given as “induce ada gene expression”.

Consider bleomycin, for which the dinD induction result in data set [16] is given as “Typical inducers of dinD”.

Consider `CN(C)C=O` [N,N Dimethyl formamide], for which the fold induction in data set [1] was 2.5; in [13] it was 3.3. Also, the fold induction at 0.8 % in data set [29] was 1.5.

Turning to `O=[N+]([O-])c1ccc(F)c([N+](=O)[O-])c1` [Dinitrofluoro benzene], the “Fold Induction, clpB” value in [33] stood at 2 fold. Further, the “Fold Induction, micF” value in data set [30] (0.32 mg/ml) came to 3.2 fold.

For the compound `CCN1C(=O)C=CC1=O` [N-ethylmaleimide], the gsh gene induction result in data set [34] is reported as “induced”.

For `[Cl][Hg][Cl]` [Mercuric chloride], in data set [31] (2 ng/ml), the “Fold Induction, merR” value is recorded as 27 fold. In addition, the “induction of merR promoter” value in [31] (mercuric chloride, FIG. 10) was “specifically induces the merR promoter”.

nitric oxide: the zwf gene induction entry in [35] was “induced”.

As to `[Cl-].[Na+]` [NaCl, sodium chloride], the “induction of sodA promoter (superoxide formation)” value in data set [23] (NaCl 0-0.8M, FIG. 5) is given as “no induction of sodA or soi17”. The “induction of proU promoter” value in data set [36] was “induces the proU promoter”. Besides, in data set [37], the “induction of soi17 promoter (superoxide formation)” value is reported as “no induction of sodA or soi17”.

Source of the values: patent US5589337A (priority 1995, dated 1996).
